Blank lines part the entries; values can stand above or below the compound they belong to.
Tests used:
NCI-H358 [1] = experiment: Antiproliferative activity against human NCI-H358 cells harboring KRAS G12C mutant assessed as inhibition of cell growth; format: functional, cell-based
[2] = target: Protein cereblon/GTPase KRas (Homo sapiens, UniProt P01116+Q96SW2, G12C); experiment: PROTAC activity at CRBN/KRAS G12C mutant in human NCI-H358 cells assessed as induction of KRAS G12C degradation; format: cell-based
Chain of Protein cereblon/GTPase KRas (P01116 whole entry G12C, stated change not applied): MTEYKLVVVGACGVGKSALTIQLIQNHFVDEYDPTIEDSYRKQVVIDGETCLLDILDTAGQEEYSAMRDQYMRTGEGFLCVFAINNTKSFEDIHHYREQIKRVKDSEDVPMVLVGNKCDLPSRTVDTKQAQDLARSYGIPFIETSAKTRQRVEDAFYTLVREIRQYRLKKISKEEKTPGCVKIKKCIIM
Chain of Protein cereblon/GTPase KRas (Q96SW2 whole entry, stated change not applied): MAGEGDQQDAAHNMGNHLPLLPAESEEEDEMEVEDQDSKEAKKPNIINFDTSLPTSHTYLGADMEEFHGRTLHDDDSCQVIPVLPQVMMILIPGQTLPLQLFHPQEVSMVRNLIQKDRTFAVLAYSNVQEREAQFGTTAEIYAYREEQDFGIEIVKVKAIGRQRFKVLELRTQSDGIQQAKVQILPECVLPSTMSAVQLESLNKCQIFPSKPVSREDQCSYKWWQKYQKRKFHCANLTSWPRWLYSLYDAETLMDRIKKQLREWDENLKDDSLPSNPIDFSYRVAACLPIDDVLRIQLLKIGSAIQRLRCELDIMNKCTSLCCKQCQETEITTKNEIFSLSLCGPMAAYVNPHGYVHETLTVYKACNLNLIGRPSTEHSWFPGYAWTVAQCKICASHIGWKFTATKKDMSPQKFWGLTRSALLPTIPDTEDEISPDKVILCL

[3] = Antiproliferative activity against human KMS-20 cells harboring KRAS G12S mutant assessed as inhibition of cell growth incubated for 72 hrs by CellTiter-Glo luminescent assay; format: functional, cell-based; details: KMS-20, 72 h
BaF3 [4] = experiment: Antiproliferative activity against mouse BaF3 cells harboring wild type KRAS assessed as inhibition of cell growth incubated for 72 hrs by CellTiter-Glo luminescent assay; format: functional, cell-based; details: BaF3, 72 h
[5] = test system: GTPase KRas (Homo sapiens), P01116 [G12S]; experiment: Covalent modification of GDP-bound recombinant human KRAS G12S mutant at 10 uM incubated for 10 mins by mass spectrometry analysis relative to control
Chain of GTPase KRas (Homo sapiens), P01116 [G12S] (P01116 whole entry G12S): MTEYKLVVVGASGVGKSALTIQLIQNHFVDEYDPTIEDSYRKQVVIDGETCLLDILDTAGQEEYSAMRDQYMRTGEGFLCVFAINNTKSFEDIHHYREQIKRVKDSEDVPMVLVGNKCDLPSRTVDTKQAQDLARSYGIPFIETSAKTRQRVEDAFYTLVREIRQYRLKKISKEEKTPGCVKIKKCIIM

BaF3 [6] = experiment: Antiproliferative activity against mouse BaF3 cells harboring KRAS G12S mutant assessed as inhibition of cell growth incubated for 72 hrs by CellTiter-Glo luminescent assay; format: functional, cell-based; details: BaF3, 72 h
GTPase KRas = GTPase KRas (Homo sapiens, UniProt P01116, G12S); experiment: Inhibition of GTP-bound KRAS G12S mutant in human A549 cells incubated for 2 hrs by immunoblot analysis; format: cell-based
Chain of GTPase KRas (P01116 whole entry G12S): as above

[7] = Inhibition of ERK phosphorylation in human NCI-H358 cells harboring KRAS G12C mutant by Western blot analysis; format: cell-based
NCI-H358 [8] = experiment: Antiproliferative activity against human NCI-H358 cells harboring KRAS G12C mutant assessed as inhibition of cell growth by resazurin dye based assay; format: functional
[9] = test system: GTPase KRas (Homo sapiens), P01116 [G12S]; experiment: Covalent modification of GDP-bound recombinant human KRAS G12S mutant at 10 uM incubated for 1 hr by mass spectrometry analysis relative to control
[10] = test system: GTPase KRas (Homo sapiens), P01116 [G12S]; experiment: Covalent modification of GDP-bound recombinant human KRAS G12S mutant at 10 uM incubated for 12 hrs by mass spectrometry analysis relative to control
NCI-H23 = experiment: Antiproliferative activity against human NCI-H23 cells harboring KRAS G12C mutant assessed as inhibition of cell growth; format: functional, cell-based

SMILES: COc1cc(Cl)c(-c2cc(Cl)ccc2Cl)cc1C(=O)N1CCN(C(=O)/C=C\C(=O)NCCCCCCNc2cccc3c2C(=O)N(C2CCC(=O)NC2=O)C3=O)CC1 (stereo not drawn)
IC50 (NCI-H358 [1]): 17400 nM
DC50 [2]: 1250 nM

IC50 (BaF3 [4]): 12500 nM
Activity [5]: 100%
IC50 (BaF3 [6]): 2400 nM
IC50 (GTPase KRas): 3000 nM
SMILES: O=C1O[C@H]2CN(c3nc(OCC45CCCN4CCC5)nc4c(F)c(-c5cccc6cccc(Cl)c56)ncc34)CC[C@@H]12
IC50 [3]: 7500 nM

IC50 [7]: 18 nM
IC50 (NCI-H358 [8]): 19 nM
SMILES: C=CC(=O)N1CC2(CC(n3nc(-c4ccc5c(cnn5C)c4)c(-c4c(Cl)c(C)cc5[nH]ncc45)c3C)C2)C1 [OPNURASIB]

Activity [9]: 64%
Activity [10]: 100%
SMILES: CN1CCC[C@H]1COc1nc2c(c(N3CCC4C(=O)OC4C3)n1)CCN(c1cccc3cccc(Cl)c13)C2 (stereo partly drawn)

IC50 (NCI-H23): 1550 nM
IC50 (NCI-H358 [1]): 780 nM
SMILES: C=C(C(=O)N1CCN(c2ncnc3c(F)c(-c4cc(Cl)ccc4OC)c(Cl)cc23)[C@H](C)C1)C(F)(F)F
